# According to patent US20140135359A1, “METHODS OF DESIGNING, PREPARING, AND USING NOVEL PROTONOPHORES” (priority 2012, published 2014):
# Entries after “also recorded” stand apart in the source; their conditions may differ.
# Tested on: isolated rat liver mitochondria
# Assay: Uncoupling activity: increase in basal (state 4) oxygen consumption by oxygraphy
# Format: biochemical
# Conditions: not given
SMILES,Measured Uncoupling Activity (% uncoupling ± SEM @ 100 μM),Uncoupling (%)
Oc1ccccc1 [phenol],0 ± 0 % uncoupling,0 ± 0%

# Same assay, conditions: 25 μM
row,SMILES,uncoupling activity
1,O=c1c(O)c(-c2ccccc2)oc2cc(O)cc(O)c12 [galangin],complete uncoupling

# Same assay, conditions: 100 μM; result in words
row,SMILES,uncoupling activity
1,O=c1cc(-c2ccccc2)oc2ccccc12 [flavone],inactive
2,C(=Cc1ccccc1)c1ccccc1 [stilbene],inactive
3,CC(=O)c1ccc(O)cc1 [para-acetylphenol],no appreciable activity
4,O=c1ccoc2cc(O)ccc12 [7-hydroxychromone],no appreciable activity; also recorded: lack of activity
5,COc1ccc(-c2coc3cc(O)cc(O)c3c2=O)cc1 [biochanin A],complete uncoupling
6,O=C(O[C@@H]1Cc2c(O)cc(O)cc2O[C@@H]1c1cc(O)c(O)c(O)c1)c1cc(O)c(O)c(O)c1 [epigallocatechin gallate],devoid of activity

# Same assay, conditions: Suppl. Table 1; 100 μM; 2-3 mitochondrial preparations
row,SMILES,Measured Uncoupling Activity (% uncoupling ± SEM @ 100 μM)
1,"COc1cc(C2Oc3cc([C@H]4Oc5cc(O)cc(O)c5C(=O)[C@@H]4O)ccc3OC2CO)ccc1O (stereo partly drawn) [silibinin (A and B), silibinin]",5 ± 1 % uncoupling
2,COc1cc(C=O)ccc1O [vanillin],0 ± 1 % uncoupling
3,Cc1cc(O)c2c(c1)C(=O)c1cc(O)cc(O)c1C2=O [frangulic acid],78 ± 14 % uncoupling
4,O=c1cc(-c2ccccc2)oc2ccccc12 [flavone],−1 ± 2 % uncoupling
5,O=c1c(O)c(-c2ccc(O)c(O)c2)oc2cc(O)cc(O)c12 [quercetin],8 ± 1 % uncoupling
6,O=C(O)c1cc(O)c(O)c(O)c1 [gallic acid],−2 ± 1 % uncoupling
7,O=C(O)/C=C/c1ccc(O)c(O)c1 [caffeic acid],0 ± 1 % uncoupling
8,Oc1cc(O)cc(/C=C/c2ccc(O)c(O)c2)c1 [trans-piceatannol],5 ± 1 % uncoupling
9,Oc1ccc(/C=C/c2cc(O)cc(O)c2)cc1 [trans-resveratrol],2 ± 0 % uncoupling
10,Oc1ccc(O)cc1 [hydroquinone],0 ± 1 % uncoupling
11,O=c1c(O)c(-c2ccccc2)oc2cc(O)cc(O)c12 [galangin],95 ± 9 % uncoupling
12,O=c1ccoc2cc(O)ccc12 [7-hydroxychromone],0 ± 0 % uncoupling
13,COc1ccc(-c2coc3cc(O)cc(O)c3c2=O)cc1 [biochanin A],103 ± 22 % uncoupling

# Same assay, conditions: Table 1A; 100 μM; relative to ADP-stimulated respiration = 100%
row,SMILES,Measured Uncoupling (% uncoupling ± SEM @ 100 μM)
1,Cc1cc(O)c2c(c1)C(=O)c1cc(O)cc(O)c1C2=O [frangulic acid],78 ± 14 % uncoupling
2,O=c1c(O)c(-c2ccccc2)oc2cc(O)cc(O)c12 [galangin],95 ± 9 % uncoupling
3,COc1ccc(-c2coc3cc(O)cc(O)c3c2=O)cc1 [biochanin A],>100 % uncoupling

# Same assay, conditions: dose-escalation
row,SMILES,"uncoupling potency compared with 2,4-dinitrophenol"
1,Cc1cc(O)c2c(c1)C(=O)c1cc(O)cc(O)c1C2=O [frangulic acid],"potency on the order of that of 2,4-dinitrophenol"
2,O=c1c(O)c(-c2ccccc2)oc2cc(O)cc(O)c12 [galangin],"potency on the order of that of 2,4-dinitrophenol"

# Same assay, conditions: dose-escalation, 100 μM or below
row,SMILES,maximal inducible uncoupling
1,Cc1cc(O)c2c(c1)C(=O)c1cc(O)cc(O)c1C2=O [frangulic acid],complete uncoupling

# Same assay, conditions: dose-escalation, logarithmic scales
row,SMILES,slope of the linear portion of the concentration-to-activity relationship
1,O=c1c(O)c(-c2ccccc2)oc2cc(O)cc(O)c12 [galangin],1.39

# Same assay, conditions: test conc. 25 μM; increase in basal (state 4) oxygen consumption as % of average ADP-stimulated (state 3) rate in vehicle-treated mitochondria
row,SMILES,Uncoupling (%)
1,Cc1cc(O)c2c(c1)C(=O)c1cc(O)cc(O)c1C2=O [frangulic acid],59 ± 16%
2,O=c1c(O)c(-c2ccc(O)c(O)c2)oc2cc(O)cc(O)c12 [quercetin],4 ± 0%
3,O=c1c(O)c(-c2ccccc2)oc2cc(O)cc(O)c12 [galangin],102 ± 3%
4,COc1ccc(-c2coc3cc(O)cc(O)c3c2=O)cc1 [biochanin A],75 ± 36%

# Same assay, conditions: test conc. 100 μM; increase in basal (state 4) oxygen consumption as % of average ADP-stimulated (state 3) rate in vehicle-treated mitochondria
row,SMILES,Uncoupling (%)
1,"COc1cc(C2Oc3cc([C@H]4Oc5cc(O)cc(O)c5C(=O)[C@@H]4O)ccc3OC2CO)ccc1O (stereo partly drawn) [silibinin (A and B), silibinin]",5 ± 1%
2,COc1cc(C=O)ccc1O [vanillin],0 ± 1%
3,Cc1cc(O)c2c(c1)C(=O)c1cc(O)cc(O)c1C2=O [frangulic acid],78 ± 14%
4,O=c1cc(-c2ccccc2)oc2ccccc12 [flavone],−1 ± 2%
5,O=c1c(O)c(-c2ccc(O)c(O)c2)oc2cc(O)cc(O)c12 [quercetin],8 ± 1%
6,O=C(O)c1cc(O)c(O)c(O)c1 [gallic acid],−2 ± 1%
7,O=C(O)/C=C/c1ccc(O)c(O)c1 [caffeic acid],0 ± 1%
8,Oc1ccc(O)cc1 [hydroquinone],0 ± 1%
9,O=c1c(O)c(-c2ccccc2)oc2cc(O)cc(O)c12 [galangin],95 ± 9%
10,O=c1ccoc2cc(O)ccc12 [7-hydroxychromone],0 ± 0%
11,COc1ccc(-c2coc3cc(O)cc(O)c3c2=O)cc1 [biochanin A],103 ± 22%

# Tested on: isolated rat liver mitochondria
# Assay: Residual functional capacity / inhibitory effect on ADP-stimulated (state 3) oxygen consumption
# Format: biochemical
# Conditions: not given
SMILES,Inhibitory effect (%),Residual capacity (%)
Oc1ccccc1 [phenol],4%,96 ± 4%

# Same assay, conditions: screening at 100 μM
row,SMILES,inhibition of ADP-stimulated oxygen consumption
1,"COc1cc(C2Oc3cc([C@H]4Oc5cc(O)cc(O)c5C(=O)[C@@H]4O)ccc3OC2CO)ccc1O (stereo partly drawn) [silibinin (A and B), silibinin]",inhibitory activity
2,O=c1c(O)c(-c2ccc(O)c(O)c2)oc2cc(O)cc(O)c12 [quercetin],inhibitory activity

# Same assay, conditions: test conc. 25 μM
row,SMILES,Inhibitory effect (%)
1,Cc1cc(O)c2c(c1)C(=O)c1cc(O)cc(O)c1C2=O [frangulic acid],41%
2,O=c1c(O)c(-c2ccc(O)c(O)c2)oc2cc(O)cc(O)c12 [quercetin],36%
3,O=c1c(O)c(-c2ccccc2)oc2cc(O)cc(O)c12 [galangin],0%
4,COc1ccc(-c2coc3cc(O)cc(O)c3c2=O)cc1 [biochanin A],0%

# Same assay, conditions: test conc. 25 μM; functional capacity (state 3 minus state 4 rate) as % of vehicle-treated mitochondria
row,SMILES,Residual capacity (%)
1,Cc1cc(O)c2c(c1)C(=O)c1cc(O)cc(O)c1C2=O [frangulic acid],0 ± 0%
2,O=c1c(O)c(-c2ccc(O)c(O)c2)oc2cc(O)cc(O)c12 [quercetin],60 ± 10%
3,O=c1c(O)c(-c2ccccc2)oc2cc(O)cc(O)c12 [galangin],2 ± 2%
4,COc1ccc(-c2coc3cc(O)cc(O)c3c2=O)cc1 [biochanin A],27 ± 27%

# Same assay, conditions: test conc. 100 μM
row,SMILES,Inhibitory effect (%)
1,"COc1cc(C2Oc3cc([C@H]4Oc5cc(O)cc(O)c5C(=O)[C@@H]4O)ccc3OC2CO)ccc1O (stereo partly drawn) [silibinin (A and B), silibinin]",73%
2,COc1cc(C=O)ccc1O [vanillin],26%
3,Cc1cc(O)c2c(c1)C(=O)c1cc(O)cc(O)c1C2=O [frangulic acid],22%
4,O=c1cc(-c2ccccc2)oc2ccccc12 [flavone],25%
5,O=c1c(O)c(-c2ccc(O)c(O)c2)oc2cc(O)cc(O)c12 [quercetin],80%
6,O=C(O)c1cc(O)c(O)c(O)c1 [gallic acid],2%
7,O=C(O)/C=C/c1ccc(O)c(O)c1 [caffeic acid],21%
8,Oc1ccc(O)cc1 [hydroquinone],10%
9,O=c1c(O)c(-c2ccccc2)oc2cc(O)cc(O)c12 [galangin],5%
10,O=c1ccoc2cc(O)ccc12 [7-hydroxychromone],14%
11,COc1ccc(-c2coc3cc(O)cc(O)c3c2=O)cc1 [biochanin A],0%

# Same assay, conditions: test conc. 100 μM; functional capacity (state 3 minus state 4 rate) as % of vehicle-treated mitochondria
row,SMILES,Residual capacity (%)
1,"COc1cc(C2Oc3cc([C@H]4Oc5cc(O)cc(O)c5C(=O)[C@@H]4O)ccc3OC2CO)ccc1O (stereo partly drawn) [silibinin (A and B), silibinin]",22 ± 5%
2,COc1cc(C=O)ccc1O [vanillin],74 ± 16%
3,Cc1cc(O)c2c(c1)C(=O)c1cc(O)cc(O)c1C2=O [frangulic acid],0 ± 0%
4,O=c1cc(-c2ccccc2)oc2ccccc12 [flavone],75 ± 13%
5,O=c1c(O)c(-c2ccc(O)c(O)c2)oc2cc(O)cc(O)c12 [quercetin],12 ± 5%
6,O=C(O)c1cc(O)c(O)c(O)c1 [gallic acid],98 ± 1%
7,O=C(O)/C=C/c1ccc(O)c(O)c1 [caffeic acid],79 ± 9%
8,Oc1ccc(O)cc1 [hydroquinone],90 ± 8%
9,O=c1c(O)c(-c2ccccc2)oc2cc(O)cc(O)c12 [galangin],0 ± 0%
10,O=c1ccoc2cc(O)ccc12 [7-hydroxychromone],86 ± 2%
11,COc1ccc(-c2coc3cc(O)cc(O)c3c2=O)cc1 [biochanin A],0 ± 0%
